The numbers were not newly measured in patent publication US20250134097A1, “PERSISTENT SANITIZER” (priority 2020, published 2025), which cites them from elsewhere.

The test system of one data set is Adenovirus. As to conditions: in vitro; concentration-dependent; includes non-enveloped virus.
In the next data set the test system is microbes. The settings on record: benzalkonium chloride at 0.1-0.2%.

For the substance Benzalkonium chloride, the antiviral activity entry in the data set with Adenovirus was “some antiviral activity including non-enveloped activity”. The antimicrobial activity entry in the data set with microbes is reported as “Broad antimicrobial activity”.
